Patent publication EP0070133B1, “Secondary phenylethanol amines, processes for their preparation and their pharmaceutical application” (priority 1981, dated 1983)
Where a name gives a salt, the structure may show the parent alone. Read-outs that look alike come from different tables or passages of the source.

Columns and labels:
Female CFLP mice [1] = test: Anti-hyperglycaemic activity: subcutaneous glucose load in fasted mice, area under blood glucose curve; type: in vivo; conditions: glucose 1 g/kg sc, 2 hour period, vs water control
Method: Female CFLP mice, each weighing approximately 25 g, were fasted for 24 hours prior to the study. The compounds under study were administered orally as an aqueous solution to each of 6 mice. 6 mice were given water as a control. 30 minutes later a blood sample (20 µl) was obtained from the tail for the analysis of blood glucose. Immediately after taking this blood sample, glucose (1 g/kg body weight) was administered subcutaneously to each mouse. Blood samples were then obtained from each mouse at 30 minute intervals for 120 minutes.
Compounds that produced a significant (P<0.05) reduction of blood glucose, compared with control mice given water, at any time interval, were considered active. The area under the blood glucose curve over the 2 hour period after the administration of the glucose was calculated for each compound and compared with the value for control animals.

Female CFLP mice [2] = test: Effect on energy expenditure and food intake of mice; type: in vivo; conditions: Mus musculus; for response vs control in vivo at 24.6 mg/kg / response vs control in vivo at 30.2 mg/kg / response vs control in vivo at 28.9 mg/kg / response vs control in vivo at 24.2 mg/kg / response vs control in vivo at 29.5 mg/kg / response vs control in vivo at 26.9 mg/kg / response vs control in vivo at 23.4 mg/kg / response vs control in vivo at 22 mg/kg / response vs control in vivo at 27.3 mg/kg / response vs control in vivo at 6.5 mg/kg / response vs control in vivo at 25.5 mg/kg / response vs control in vivo at 26.4 mg/kg / response vs control in vivo at 21.8 mg/kg / response vs control in vivo at 22.6 mg/kg / response vs control in vivo at 26.3 mg/kg / response vs control in vivo at 22.7 mg/kg / response vs control in vivo at 19.2 mg/kg: po, 21 h; for response vs control in vivo at 24.3 mg/kg: 24.3 mg/kg po; for response vs control in vivo at 24.3 mg/kg / response vs control in vivo at 18.4 mg/kg / response vs control in vivo at 23.1 mg/kg: mice, 21 hours after dosing, % of mice dosed with water; for response vs control in vivo at 18.4 mg/kg: 18.4 mg/kg po; for response vs control in vivo at 23.1 mg/kg: 23.1 mg/kg po
Method: Female CFLP mice each weighing approximately 24 g, were given food and water ad lib before and during the experiment. The compounds were dissolved in water by addition of one mole of hydrochloric acid per mole of compound and these solutions were administered orally to each of 12 mice. A further 12 mice were dosed orally with water. The mice were placed in boxes through which air was drawn and the oxygen content of the air leaving the boxes was measured. […] The food intake of the mice was measured over this same period of 21 hours. The results are expressed as a percentage of the mean food intake or rate of energy expenditure of the mice dosed with water.

Rat hearts = test: Cardiac activity: rat hearts perfused by the Langendorff procedure; conditions: reference standard, maximum response, no dose given, perfused rat heart
Method: Rat hearts were perfused by the Langendorff procedure as follows:- • Hearts were dissected free within 30 seconds of death and reverse perfused via the aorta and coronary vessels with Krebs-Ringer bicarbonate solution (pH 7.4, 37°C) gassed with 95% oxygen:5% carbon dioxide at a flow rate between 8-12 cm^3/minute. Responses were observed after injection of drug dissolved in isotonic saline into the perfusion media.
Results are expressed as a percentage of the maximum response due to salbutamol.

[3] = read-out: Mean Energy Expenditure (%)

## CNCCOc1ccc(CC(C)NCC(O)c2cc3ccccc3o2)cc1.Cl.Cl (stereo not drawn) [Example 4, N-[2-(4-(2-Methylaminoethoxy)phenyl)-1-methylethyl]-2-hydroxy-2-(2-benzofuranyl) ethanamine dihydrochloride]
Female CFLP mice [1]; 2.5 μ moles/kg po
  Reduction in area under Blood glucose curve (%): 18%
Female CFLP mice [2]; [3]
  response vs control in vivo at 24.6 mg/kg: 110%
Female CFLP mice [2]; read-out: Mean Food Intake (%)
  response vs control in vivo at 24.6 mg/kg: 76%

## Br.Br.CNCCOc1ccc(CC(C)NCC(O)c2cccc(Cl)c2)cc1F (stereo not drawn) [Example 5, N-[2-(3-Fluoro-4-(2-methylaminoethoxy)phenyl)-1-methylethyl)-2-hydroxy-2-(3-chlorophenyl) ethanamine dihydrobromide]
Female CFLP mice [1]; 1 μ moles/kg po
  Reduction in area under Blood glucose curve (%): 38%
Female CFLP mice [2]; [3]
  response vs control in vivo at 30.2 mg/kg: 134%
Female CFLP mice [2]; read-out: Mean Food Intake (%)
  response vs control in vivo at 30.2 mg/kg: 102%

## Br.Br.CCc1cccc(C(O)CNC(C)Cc2ccc(OCCNC)cc2)c1 (stereo not drawn) [Example 6, N-[2-(4-(2-Methylaminoethoxy)phenyl)-1-methylethyl]-2-hydroxy-2-(3-ethylphenyl)ethanamine dihydrobromide]
Female CFLP mice [1]; 50 μ moles/kg po
  Reduction in area under Blood glucose curve (%): 36.5%
Female CFLP mice [2]; [3]
  response vs control in vivo at 28.9 mg/kg: 97%
Female CFLP mice [2]; read-out: Mean Food Intake (%)
  response vs control in vivo at 28.9 mg/kg: 98%

## CNCCOc1ccc(CC(C)NCC(O)c2ccc(Cl)cc2)cc1 (stereo not drawn) [Example 12, N-[2-(4-(2-Methylaminoethoxy)phenyl)-1-methylethyl]-2-hydroxy-2-(4-chlorophenyl)ethanamine dihydrochloride]
Female CFLP mice [2]; [3]
  response vs control in vivo at 24.2 mg/kg: 120%
Female CFLP mice [2]; read-out: Mean Food Intake (%)
  response vs control in vivo at 24.2 mg/kg: 99%

## CC(Cc1ccc(OCCNCc2ccccc2)cc1)NCC(O)c1cccc(Cl)c1 (stereo not drawn) [Example 13, N-[2-4-(2-Benzylaminoethoxy)phenyl)-1-methylethyl]-2-hydroxy-2-(3-chlorophenyl)ethanamine dihydrochloride monohydrate]
Female CFLP mice [1]; 1 μ moles/kg po
  Reduction in area under Blood glucose curve (%): 62%
Female CFLP mice [2]; [3]
  response vs control in vivo at 29.5 mg/kg: 139%
Female CFLP mice [2]; read-out: Mean Food Intake (%)
  response vs control in vivo at 29.5 mg/kg: 78%

## CC(Cc1ccc(OCCN2CCCCCC2)cc1)NCC(O)c1cccc(C(F)(F)F)c1 (stereo not drawn) [Example 15, N-[2-(4-(2-(1-Homopiperidine)ethoxy)phenyl)-1-methylethyl]-2-hydroxy-2-(3-trifluoromethylphenyl)-ethanamine dihydrochloride]
Female CFLP mice [1]; 1 μ moles/kg po
  Reduction in area under Blood glucose curve (%): 17%
Female CFLP mice [2]; [3]
  response vs control in vivo at 26.9 mg/kg: 117%
Female CFLP mice [2]; read-out: Mean Food Intake (%)
  response vs control in vivo at 26.9 mg/kg: 77%

## CCOC(=O)NCCOc1ccc(CC(C)NCC(O)c2cccc(Cl)c2)cc1 (stereo not drawn) [Example 16, N-[2-(4-(2-Ethoxycarbonylamioethoxy)phenyl)-1-methylethyl]-2-hydroxy-2-(3-chlorophenyl)ethanamine]
Female CFLP mice [1]; 1 μ moles/kg po
  Reduction in area under Blood glucose curve (%): 68%
Female CFLP mice [2]; [3]
  response vs control in vivo at 23.4 mg/kg: 141%
Female CFLP mice [2]; read-out: Mean Food Intake (%)
  response vs control in vivo at 23.4 mg/kg: 91%

## CNC(=O)NCCOc1ccc(CC(C)NCC(O)c2cccc(C(F)(F)F)c2)cc1 (stereo not drawn) [Example 17, N-[2-(4-(2-Methylaminocarbonylaminoethoxy)phenyl)-1-methylethyl]-2-hydroxy-2-(3-trifluoromethylphenyl)ethanamine]
Female CFLP mice [2]; [3]
  response vs control in vivo at 22 mg/kg: 114%
Female CFLP mice [2]; read-out: Mean Food Intake (%)
  response vs control in vivo at 22 mg/kg: 87%

## CC(Cc1ccc(OCCN)cc1)NCC(O)c1cccc(C(F)(F)F)c1.Cl.Cl.O.O (stereo not drawn) [Example 19, N-[2-(4-(2-Aminoethoxy)phenyl)-1-methylethyl]-2-hydroxy-2-(3-trifluoromethylphenyl)ethanamine dihydrochloride, dihydrate]
Female CFLP mice [1]; 1 μ moles/kg po
  Reduction in area under Blood glucose curve (%): 46%
Female CFLP mice [2]; [3]
  response vs control in vivo at 27.3 mg/kg: 135%
Female CFLP mice [2]; read-out: Mean Food Intake (%)
  response vs control in vivo at 27.3 mg/kg: 94%

## CNCCOc1ccc(C[C@H](C)NC[C@H](O)c2cccc(C(F)(F)F)c2)cc1 [Example 23, N-[2-(4-(2-Methylaminoethoxy)phenyl)-1-methylethyl]-2-hydroxy-2-(3-trifluoromethylphenyl)ethanamine dihydrochloride, (RS,SR) diastereoisomer]
Female CFLP mice [1]; 2.5 μ moles/kg po
  Reduction in area under Blood glucose curve (%): 20%
Female CFLP mice [2]; [3]
  response vs control in vivo at 6.5 mg/kg: 109%
Female CFLP mice [2]; read-out: Mean Food Intake (%)
  response vs control in vivo at 6.5 mg/kg: 112%

## CC(Cc1ccc(OCCN2CCCC2)cc1)NCC(O)c1cccc(C(F)(F)F)c1 (stereo not drawn) [Example 25, N-[2-(4-(2-11-Pyrrolidine)ethoxy)phenyl)-1-methylethyl]-2-hydroxy-2-(3-trifluoromethylphenyl)ethanamine dihydrochloride]
Female CFLP mice [2]; [3]
  response vs control in vivo at 25.5 mg/kg: 117%
Female CFLP mice [2]; read-out: Mean Food Intake (%)
  response vs control in vivo at 25.5 mg/kg: 87%

## CC(Cc1ccc(OCCN2CCCCC2)cc1)NCC(O)c1cccc(C(F)(F)F)c1 (stereo not drawn) [Example 26, N-[2-(4-(2-(1-Piperidine)ethoxy)phenyl)-1-methylethyl]-2-hydroxy-2-(3-trifluoromethylphenyl)ethanamine dihydrochloride monohydrate]
Female CFLP mice [2]; [3]
  response vs control in vivo at 26.4 mg/kg: 125%
Female CFLP mice [2]; read-out: Mean Food Intake (%)
  response vs control in vivo at 26.4 mg/kg: 63%

## CCNCCOc1ccc(CC(C)NCC(O)c2cccc(C(F)(F)F)c2)cc1 (stereo not drawn) [Example 27, N-[2-(4-(2-Ethylaminoethoxy)phenyll-1-methylethyl]-2-hydroxy-2-(3-trifluoromethylphenyl)ethanaminedihydrochloride]
Female CFLP mice [2]; [3]
  response vs control in vivo at 24.2 mg/kg: 143%
Female CFLP mice [2]; read-out: Mean Food Intake (%)
  response vs control in vivo at 24.2 mg/kg: 100%

## CNCCOc1ccc(C[C@@H](C)NC[C@H](O)c2cccc(Cl)c2)cc1 [Example 28, N-[2-(4-(2-Methylaminoethoxy)phenyl)-1-methylethyl]-2-hydroxy-2-(3-chlorophenyl)ethanamine dihydrochloride - (RR,SS) diastereoisomer]
Female CFLP mice [1]; 0.5 μ moles/kg po
  Reduction in area under Blood glucose curve (%): 42%
Female CFLP mice [2]; [3]
  response vs control in vivo at 21.8 mg/kg: 135%
Female CFLP mice [2]; read-out: Mean Food Intake (%)
  response vs control in vivo at 21.8 mg/kg: 108%

## CNCCOc1cccc(CC(C)NCC(O)c2cccc(Cl)c2)c1 (stereo not drawn) [Example 29, N-[2-(3-(2-Methylaminoethoxy)phenyll-1-methylethyl]-2-hydroxy-2-(3-chlorophenyl)ethanaminedihydrochloride]
Female CFLP mice [1]; 12.5 μ moles/kg po
  Reduction in area under Blood glucose curve (%): 48%
Female CFLP mice [2]; [3]
  response vs control in vivo at 21.8 mg/kg: 123%
Female CFLP mice [2]; read-out: Mean Food Intake (%)
  response vs control in vivo at 21.8 mg/kg: 107%

## CC(Cc1ccc(OCCN2CCOCC2)cc1)NCC(O)c1cccc(C(F)(F)F)c1 (stereo not drawn) [Example 30, N-[2-(4-(2-(1-Morpholine)ethoxy)phenyl)-1-methylethyl]-2-hydroxy-2-(3-trifluoromethylphenyl)ethanamine]
Female CFLP mice [2]; [3]
  response vs control in vivo at 22.6 mg/kg: 125%
Female CFLP mice [2]; read-out: Mean Food Intake (%)
  response vs control in vivo at 22.6 mg/kg: 95%

## CC(COc1ccc(CC(C)NCC(O)c2cccc(C(F)(F)F)c2)cc1)NCc1ccccc1 (stereo not drawn) [Example 31, N-[2-(4-(2-Benzylaminopropoxy)phenyl)-1-methylethyl]-2-hydroxy-2-(3-trifluoromethylphenyl)ethanamine]
Female CFLP mice [1]; 50 μ moles/kg po
  Reduction in area under Blood glucose curve (%): 45%
Female CFLP mice [2]; [3]
  response vs control in vivo at 24.3 mg/kg: 100%
Female CFLP mice [2]; read-out: Mean Food Intake (%)
  response vs control in vivo at 24.3 mg/kg: 59%

## CNCCCCCCOc1ccc(CC(C)NCC(O)c2cccc(C(F)(F)F)c2)cc1 (stereo not drawn) [Example 33, N-[2-(4-(6-Methylaminohexyloxy)phenyl)-1-methylethyl]-2-hydroxy-2-(3-trifluoromethylphenyl)-ethanamine dihydrochloride]
Female CFLP mice [2]; [3]
  response vs control in vivo at 26.3 mg/kg: 131%
Female CFLP mice [2]; read-out: Mean Food Intake (%)
  response vs control in vivo at 26.3 mg/kg: 80%

## NCCOc1ccc(CCNCC(O)c2cccc(C(F)(F)F)c2)cc1 (stereo not drawn) [Example 34, N-[2-(4-(2-Aminoethoxy)phenyl)ethyl]-2-hydroxy-2-(3-trifluoromethylphenyl)ethanamine]
Female CFLP mice [2]; [3]
  response vs control in vivo at 18.4 mg/kg: 117%
Female CFLP mice [2]; read-out: Mean Food Intake (%)
  response vs control in vivo at 18.4 mg/kg: 103%

## CN(C)CCOc1ccc(CCC(C)(C)NCC(O)c2ccccc2)cc1.Cl.Cl (stereo not drawn) [Example 35, N-[3-(4-(2-Dimethylaminoethoxy)phenyl)-1,1-dimethylpropyl]-2-hydroxy-2-phenylethanamine dihydrochloride]
Female CFLP mice [1]; 250 μ moles/kg po
  Reduction in area under Blood glucose curve (%): 18%
Female CFLP mice [2]; [3]
  response vs control in vivo at 23.1 mg/kg: 95%
Female CFLP mice [2]; read-out: Mean Food Intake (%)
  response vs control in vivo at 23.1 mg/kg: 83%

## CCN(CC)CCOc1ccc(CC(C)NCC(O)c2cccc(C(F)(F)F)c2)cc1.O=C(O)/C=C/C(=O)O (stereo not drawn) [Example 36, N-[2-(4-(2-Diethylaminoethoxy)phenyl)-1-methylethyl]-2-hydroxy-2-(3-trifluoromethylphenyl)ethanamine fumarate]
Female CFLP mice [1]; 50 μ moles/kg po
  Reduction in area under Blood glucose curve (%): 56%
Female CFLP mice [2]; [3]
  response vs control in vivo at 22.7 mg/kg: 132%
Female CFLP mice [2]; read-out: Mean Food Intake (%)
  response vs control in vivo at 22.7 mg/kg: 78%

## CC(Cc1ccc(OCC#N)cc1)NCC(O)c1cccc(Cl)c1 (stereo not drawn) [Example 38, N-[2-(4-Cyanomethoxylphenyl)-1-methylethyl]-2-hydroxy-2-(3-chlorophenyl)ethanamine]
Female CFLP mice [1]; 0.5 μ moles/kg po
  Reduction in area under Blood glucose curve (%): 63%
Female CFLP mice [2]; [3]
  response vs control in vivo at 19.2 mg/kg: 132%
Female CFLP mice [2]; read-out: Mean Food Intake (%)
  response vs control in vivo at 19.2 mg/kg: 81%

## CC(C)(C)NCC(O)c1ccc(O)c(CO)c1 (stereo not drawn) [Salbutamol, reference compound]
Rat hearts; read-out: Heart Rate
  Emax: 100%
Rat hearts; read-out: Heart Tension
  Emax: 100%
